The values that follow come from patent publication US20040044304A1, “Local drug delivery using photosensitizer-mediated and electromagnetic radiation enhanced vascular permeability” (priority 2002, published 2004).

The experiment deals with blood vessels within the dorsal window chamber. Type of experiment: in vivo, Syrian golden hamsters. To be noted: 150 kD FITC-Dextran conjugate; fluorescence microscopy. From the text:
Syrian golden hamsters (Charles River Laboratories, Kingston, N.Y.) weighing between 60-70 gram were surgically implanted with titanium back-pack window chambers as described ([…] et al., 1980; Colantuoni et al., 1984; […] et al., 1994). Prior to the surgical procedure, the dorsal surface of the mouse was shaved with electric clippers (Sunbeam Oster 2-Speed, 150 Cadillac Lane, McMinnville, Tenn., 37110) and then the shaved skin covered in a depilatory cream (Nair, Carter Products, New York, N.Y., 10105) for 10 minutes to remove the remaining hair. A dorsal skin fold consisting of two layers of skin and muscle tissue was then sandwiched between two opposing titanium frames (Campus Research Machine Shop, University of California, San Diego 9500 Gilman Drive, La Jolla, Calif.) with a 15 mm circular opening in each. Layers of skin and muscle fascia were separated from the sub-cutaneous tissue, and removed until a thin monolayer of muscle and one layer of intact skin remained. A coverglass (Type Circle 1, Part #12-545-80 sourced from Fisher Scientific, 2761 Walnut Avenue, Tustin, Calif., 92780) held by an expansion ring in the circular window of one titanium frame was then placed on the exposed tissue to allow direct microscopic visualization of the vasculature. The window in the second opposing titanium frame was left open exposing the intact skin. Two days following the implantation of the titanium chamber, an in-dwelling PE10 catheter (VVR Scientific, Westchester, Pa.) was implanted in the carotid artery. The catheter tubing was passed sub-cutaneously from the ventral to the dorsal side of the neck, and exteriorized through the skin at the base of the chamber. The patency of the catheter was ensured by daily flushing of the in-dwelling implanted tip with 0.005-0.01 ml of heparinized saline (40 IU/ml). The heparin was sourced from Upjohn Co., 100 Route […], Prepack, N.J., 07977, and the saline from Abbott Laboratories, North Chicago, Ill., 60064. Microvascular observations using an intra-vital microscope were not undertaken until at least 4 days post-chamber implantation to mitigate against post-surgical trauma, and to confirm that blood vessels within the chamber were functioning and intact and patent. A chamber was considered suitable for subsequent studies if microscopic examination of the preparation met the following criteria (as applied in […] et al., 1994): The intra-vital microscopic studies were undertaken on un-sedated animals held in a Plexiglass tube (Campus Research Machine Shop, University of California, San Diego 9500 Gilman Drive, La Jolla, Calif.) from which the window chamber sandwich protruded horizontally, allowing visualization of the chamber on the microscope stage. The Plexiglass tube acted to restrain the animals without impeding respiration. The intra-vital microscopy was performed using a Leitz Ortholux II (McBain Instruments, Inc., 9601 […] Avenue, Chatsworth, Calif., 91311) fitted with a Leitz Wetzlar 25× saline immersion objective lens, 0.6 numerical aperture (McBain Instruments, Inc., 9601 […] Avenue, Chatsworth, Calif., 91311), a Leitz Wetzlar 10× dry Planfluotar lens, 0.3 numerical aperture (McBain Instruments, Inc., 9601 […] Avenue, Chatsworth, Calif., 91311) and a Leitz Wetzlar 4× EF dry lens, 0.12 numerical aperture (McBain Instruments, Inc., 9601 […] Avenue, Chatsworth, Calif., 91311). A 100 Watt Hg light source (Olympus Corporation, 2 Corporate Center Drive, Melville, N.Y., 11747-3157) was used for both trans- and epi-illumination. For the trans-illumination studies the light was filtered using a 420 nm blue filter which selectively passed light in the region of the maximum absorbance band of hemoglobin, causing the red blood cells to appear as dark objects against a gray background. In addition, a heat filter was placed in the light path prior to the condenser to prevent hyperthermic effects on the tissue being examined.

Consider “fluorescein diisothiocyanate dextran [FITC-Dextran, reference compound]”, for which the “Retention of the molecule in the treated tissue field following PhotoPoint-induced release from the vasculature” value was “at least 48 hrs”.
